We go through 2 compounds from ChEMBL document CHEMBL1125088, “Stereospecific synthesis, assignment of absolute configuration, and biological activity of the enantiomers of 3-[[[3-[2-(7-chloroquinolin-2-yl)-(E)-ethenyl]phenyl] [[3-(dimethylamino)-3-oxopropyl]thio]methyl]thio]propionic acid, a potent and specific leukotriene D4 receptor antagonist” (J Med Chem, 1990).

Structures are written as SMILES.

Assay [1] has as its target T1, Cysteinyl leukotriene receptor 1 (Cavia porcellus, UniProt Q2NNR5).
T1 sequence (Q2NNR5 whole entry): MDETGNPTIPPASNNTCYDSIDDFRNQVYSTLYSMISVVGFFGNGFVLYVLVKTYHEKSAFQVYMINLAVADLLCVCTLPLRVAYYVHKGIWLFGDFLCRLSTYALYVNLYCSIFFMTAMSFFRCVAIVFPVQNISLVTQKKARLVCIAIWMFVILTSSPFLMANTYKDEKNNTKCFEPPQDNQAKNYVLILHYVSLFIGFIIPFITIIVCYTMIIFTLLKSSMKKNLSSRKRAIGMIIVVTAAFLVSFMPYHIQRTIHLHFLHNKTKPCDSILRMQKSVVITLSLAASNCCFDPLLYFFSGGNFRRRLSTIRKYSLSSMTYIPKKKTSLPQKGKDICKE
The assay can be described thus: Binding affinity against Cysteinyl leukotriene D4 receptor from guinea pig lung membrane. The format is tissue-based.

For a further assay, the species on record is Cavia porcellus. The assay can be described thus: Antagonist activity of LTD4-induced contractions of isolated guinea pig trachea. The format is functional.
For another assay, the species on record is Rattus norvegicus. The experiment in a line: Tested for antigen-induced dyspnea in hyperactive rats. The format is functional.
Assay [2] concerns the target T2, Cysteinyl leukotriene receptor 1 (Homo sapiens, UniProt Q9Y271).
T2 sequence (Q9Y271 whole entry): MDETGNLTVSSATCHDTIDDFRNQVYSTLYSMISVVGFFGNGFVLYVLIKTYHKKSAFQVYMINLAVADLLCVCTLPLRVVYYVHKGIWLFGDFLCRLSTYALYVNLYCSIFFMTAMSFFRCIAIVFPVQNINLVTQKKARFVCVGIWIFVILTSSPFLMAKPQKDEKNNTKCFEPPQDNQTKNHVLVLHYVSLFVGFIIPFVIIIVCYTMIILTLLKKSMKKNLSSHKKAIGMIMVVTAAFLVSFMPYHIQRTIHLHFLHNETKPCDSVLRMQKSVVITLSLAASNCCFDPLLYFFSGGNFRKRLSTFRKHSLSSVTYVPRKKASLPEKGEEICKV
The experiment in a line: In vitro inhibitory activity against Cysteinyl leukotriene D4 receptor from human lung membrane. The format is tissue-based.

As for `CN(C)C(=O)CCS[C@H](SCCC(=O)O)c1cccc(/C=C/c2ccc3ccc(Cl)cc3n2)c1` [VERLUKAST], the IC50 is 3.2 nM in assay [1] and 8 nM in assay [2]. For the same compound, the “-Log KB” value in the assay filed under Cavia porcellus stood at 8.7. The compound further registered an ED50 in the assay listed under Rattus norvegicus of 0.028 mg/kg.
Consider `CN(C)C(=O)CCSC(SCCC(=O)[O-])c1cccc(/C=C/c2ccc3ccc(Cl)cc3n2)c1.[Na+]` (stereo not drawn), for which the results for the IC50 in assay [1] and in assay [2] were 0.77 nM and 3.1 nM, respectively. Moreover, the “-Log KB” value in the assay listed under Cavia porcellus is 9. The compound further yielded an ED50 in the assay listed under Rattus norvegicus of 0.097 mg/kg.

For orientation: IC50 means the midpoint of a concentration-inhibition curve. Usually ED50 stands for the midpoint of the dose-response relation. Higher therefore signals weaker potency.
